Source: patent US9333209B2, “Compositions for increasing hair growth” (The Board of Trustees of the Leland Stanford Junior …, priority 2012, dated 2016)
Entries after “also recorded” stand apart in the source; their conditions may differ.

Key:
[1] = tested on: murine hair follicle cycling; details: small molecule screen of calcium blockers; mice
Description: To understand how calcium signaling controls hair follicle stem cell regulation, a screen for small molecules that affect murine hair follicle cycling was carried out. The compounds included a survey of different classes of cell permeable slow and fast channel blockers applied to the skin.
We performed a small molecule screen to find out if any of the available calcium blockers affected hair follicle cycling.

[2] = tested on: bulge stem cells of Cav fx/-; K15 CrePR mice; assay: Verapamil treatment of RU486 treated Cav fx/-; K15 CrePR mice; format: in vivo, mouse
From the text: Loss of function mutation of this channel entails a removal of exon 13 and 14 of Cav 1.2 gene (FIG. 1). […] Cav fx/- mice were crossed to K15CrePR animals to remove the pore region of the channel in the bulge stem cells. RU486 treatment of Cav fx/-; K15CrePR allowed the removal of the pore region. […] Loss of function mutation, which represents the closed state of this channel, results in the same phenotype as the open state of the channel.

bulge stem cells = assay: microarray analysis and RT-PCR on Verapamil treated bulge cells; format: in vivo, mouse
From the text: Out of those, the gene Follistatin like 1 (Fstl1) stood out. Fstl1 is a secreted glycoprotein that inhibits BMP signaling in lung and ureter development.
There are other BMP inhibitors that are known to affect hair cycling.

[3] = tested on: hair follicles of wild type mice; assay: Verapamil treatment of wild type mice in first telogen
hair cycling = assay: subcutaneous injection of Fstl1 protein soaked beads, effect on hair cycling; format: in vivo, mouse; details: half dose (2 μg) soaked beads, Day 21-22 mice
Description: To understand the effect of Fstl1 on hair cycling, we subcutaneously injected two different doses of Fstl1 protein (4 μg and 2 μg) soaked beads to Day 21-22 mice. In 2 to 4 days, these mice went into anagen (n=8, FIG. 7D).

[4] = treated bulge stem cells vs control bulge stem cells

Molecule: COc1ccc([C@@H]2Sc3ccccc3N(CCN(C)C)C(=O)[C@@H]2OC(C)=O)cc1 [Diltiazem, diltiazem]
- entry to anagen [1]: showed the same results; also recorded: precocious entry into anagen

Molecule: COc1ccc(CCN(C)CCCC(C#N)(c2ccc(OC)c(OC)c2)C(C)C)cc1OC (stereo not shown) [Verapamil, verapamil]
- anagen entry later than wild type littermates ([2]; drug treated Cav fx/-, K15 CrePR mutant mice, RU486 treated): 2 to 4 days
- H and E staining of skin sections ([2]; treated mice vs control skin with telogen hair follicles): anagen hair follicles
- Bambi expression (bulge stem cells; treated bulge stem cells): downregulated
- Noggin expression (bulge stem cells; treated bulge stem cells): downregulated
- Fstl1 expression (RT-PCR) (bulge stem cells; [4]): upregulated
- Tmeff1 expression (bulge stem cells; [4]): does not change much
- H and E staining of skin sections ([3]; drug treated wild type mice vs telogen hair follicles in control mice): anagen hair follicles
- early anagen (advance of anagen entry) ([3]; wild type mice treated between days 21 and 28 (first telogen), n=8): 5 to 7 days

B1: Fstl1 protein: secreted glycoprotein that inhibits BMP signaling; deduced 308-amino acid protein with FS module (protein, UniProt Q12841 21-308, looked up)
Follistatin-related protein 1: EEELRSKSKICANVFCGAGRECAVTEKGEPTCLCIEQCKPHKRPVCGSNGKTYLNHCELHRDACLTGSKIQVDYDGHCKEKKSVSPSASPVVCYQSNRDELRRRIIQWLEAEIIPDGWFSKGSNYSEILDKYFKNFDNGDSRLDSSEFLKFVEQNETAINITTYPDQENNKLLRGLCVDALIELSDENADWKLSFQEFLKCLNPSFNPPEKKCALEDETYADGAETEVDCNRCVCACGNWVCTAMTCDGKNQKGAQTQTEEEMTRYVQELQKHQETAEKTKRVSTKEI
- entry to anagen (hair cycling): only partial entry to anagen
